Experimental data: patent US20210318318A1, “Kinase Activity In Tumors” (Institute For Cancer Research d/b/a The Research Institute …, priority 2018, published 2021)

Legend:
Experiment in all cases: MIB/MS kinome profiling of inhibitor-treated OVSAHO cells
Assay type in all cases: cell-based
Conditions in all cases: 2 μM, 4 hours
AAK1 = biological target: T1, AAK1 (Homo sapiens, UniProt Q2M2I8)
T1 construct: endogenous in cells; host or cells: OVSAHO
Procedure: (§1) OVSAHO cells were treated with 2 μM of inhibitor for 4 hours and analyzed by MIB/MS. Scatterplot depicts difference in kinase MIB-binding of drug treated relative to control DMSO as determined by Students T-test.
(§2) MIB-based kinome profiling was performed on several of these molecules in HGSOC cells to determine kinome-wide inhibition profiles.
(§3) Experiments using MIB/MS were performed as previously described (Duncan et al., Cell, 2012, 149, 307-321; and Kurimchak et al., Cell Reports, 2016, 16, 1273-1286). Briefly, cells or tumors were lysed on ice in buffer containing 50 mM HEPES (pH 7.5), 0.5% Triton X-100, 150 mM NaCl, 1 mM EDTA, 1 mM EGTA, 10 mM sodium fluoride, 2.5 mM sodium orthovanadate, 1× protease inhibitor cocktail (Roche), and 1% each of phosphatase inhibitor cocktails 2 and 3 (Sigma). Particulate was removed by centrifugation of lysates at 13,000 rpm for 10 minutes at 4° C. and filtration through 0.2 μm syringe filters. Protein concentrations were determined by BCA analysis (Thermo). To compare kinome signatures within and across such large sample sizes, a super-SILAC method was designed (Neubert et al., Nat. Meth., 2010, 7, 361-362) consisting of a cocktail of cancer cell lines that encompasses the activity of the “cancer kinome” to be used as a control for individual samples. Five cancer cell lines were selected from the NCI-60 panel (UACC257, MOLT4, COL0205, ACHN and PC3) that differed in their origin, gene expression patterns and mutation status. The cancer cell lines were labeled using SILAC and mixed equally providing a diverse SILAC ([^13C6,^15N4] arginine (Arg^10) and […] (Lys^8)) heavy kinome reference standard (HKS) to be used repeatedly in kinome profiling assays. An equal amount of the HKS was added to the non-labeled sample (cell, tumor or normal tissue) providing a quantitative strategy to compare kinome activity/levels across samples, amongst treatments and, importantly, across time. Endogenous kinases were isolated by flowing lysates over kinase inhibitor-conjugated Sepharose beads (purvalanol B, VI16832, PP58 and CTx-0294885 beads were used) in 10 ml gravity-flow columns. After 2×10 ml column washes in high-salt buffer and 1×10 ml wash in low-salt buffer (containing 50 mM HEPES (pH 7.5), 0.5% Triton X-100, 1 mM EDTA, 1 mM EGTA, and 10 mM sodium fluoride, and 1M NaCl or 150 mM NaCl, respectively), retained kinases were eluted from the column by boiling in 2×500 μL of 0.5% SDS, 0.1 M TrisHCl (pH 6.8), and 1% 2-mercaptoethanol. Eluted peptides were reduced by incubation with 5 mM DTT at 60° C. for 25 minutes, alkylated with 20 mM iodoacetamide at room temperature for 30 minutes in the dark and alkylation was quenched with DTT. Samples were concentrated to approximately 100 μL with Millipore 10 kD cutoff spin concentrators. Detergent was removed by chloroform/methanol extraction, and the protein pellet was resuspended in 100 mM ammonium bicarbonate and digested with sequencing-grade modified trypsin (Promega) overnight at 37° C. […]
(§4) Proteolytic peptides were resuspended in 0.1% formic acid and separated with a Thermo RSLC Ultimate 3000 on a Thermo Easy-Spray C18 PepMap 75 μm×50 cm C-18 2 μm column with a 240 minute gradient of 4-25% acetonitrile with 0.1% formic acid at 300 nL/min and 50° C. Eluted peptides were analyzed by a Thermo Q Exactive plus mass spectrometer utilizing a top 15 methodology in which the 15 most intense peptide precursor ions were subjected to fragmentation. […]

CDK8 = biological target: T2, CDK8 (Homo sapiens, UniProt P49336)
T2 construct: endogenous in cells; host or cells: OVSAHO
Procedure: as §1, §2, §3, §4

CLK2 = biological target: T3, CLK2 (Homo sapiens, UniProt P49760)
T3 construct: endogenous in cells; host or cells: OVSAHO
Procedure: as §1, §2, §3, §4

MAP3K12 = biological target: T4, MAP3K12 (Homo sapiens, UniProt Q12852)
T4 construct: endogenous in cells; host or cells: OVSAHO
T4 sequence (Q12852 1-859): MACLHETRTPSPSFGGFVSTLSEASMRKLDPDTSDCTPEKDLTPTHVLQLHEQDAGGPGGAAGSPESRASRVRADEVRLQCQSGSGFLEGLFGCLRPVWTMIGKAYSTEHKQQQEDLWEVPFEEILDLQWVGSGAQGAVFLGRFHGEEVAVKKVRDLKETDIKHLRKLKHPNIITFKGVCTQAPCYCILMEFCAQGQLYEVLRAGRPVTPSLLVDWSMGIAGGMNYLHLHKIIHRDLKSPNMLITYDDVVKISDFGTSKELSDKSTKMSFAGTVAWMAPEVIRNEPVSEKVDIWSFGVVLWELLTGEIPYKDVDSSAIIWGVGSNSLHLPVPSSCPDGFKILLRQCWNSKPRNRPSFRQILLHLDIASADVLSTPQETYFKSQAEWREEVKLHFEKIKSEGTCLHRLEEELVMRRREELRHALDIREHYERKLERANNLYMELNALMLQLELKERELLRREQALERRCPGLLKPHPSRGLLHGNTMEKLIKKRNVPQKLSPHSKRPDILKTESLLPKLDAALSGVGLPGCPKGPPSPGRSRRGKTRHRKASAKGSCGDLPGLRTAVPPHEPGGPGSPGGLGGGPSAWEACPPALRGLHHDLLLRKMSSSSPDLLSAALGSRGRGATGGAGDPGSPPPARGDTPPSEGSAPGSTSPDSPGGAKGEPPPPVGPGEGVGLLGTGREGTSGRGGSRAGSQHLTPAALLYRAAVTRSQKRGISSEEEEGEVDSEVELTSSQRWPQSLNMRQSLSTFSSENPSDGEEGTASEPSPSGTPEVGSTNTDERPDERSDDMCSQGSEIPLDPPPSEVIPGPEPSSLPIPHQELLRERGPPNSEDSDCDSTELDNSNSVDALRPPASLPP
Procedure: as §1, §2, §3, §4

PRCKD = biological target: T5, PRCKD (Homo sapiens, UniProt Q05655)
T5 construct: endogenous in cells; host or cells: OVSAHO
Procedure: as §1, §2, §3, §4

T1 sequence (Q2M2I8 whole entry): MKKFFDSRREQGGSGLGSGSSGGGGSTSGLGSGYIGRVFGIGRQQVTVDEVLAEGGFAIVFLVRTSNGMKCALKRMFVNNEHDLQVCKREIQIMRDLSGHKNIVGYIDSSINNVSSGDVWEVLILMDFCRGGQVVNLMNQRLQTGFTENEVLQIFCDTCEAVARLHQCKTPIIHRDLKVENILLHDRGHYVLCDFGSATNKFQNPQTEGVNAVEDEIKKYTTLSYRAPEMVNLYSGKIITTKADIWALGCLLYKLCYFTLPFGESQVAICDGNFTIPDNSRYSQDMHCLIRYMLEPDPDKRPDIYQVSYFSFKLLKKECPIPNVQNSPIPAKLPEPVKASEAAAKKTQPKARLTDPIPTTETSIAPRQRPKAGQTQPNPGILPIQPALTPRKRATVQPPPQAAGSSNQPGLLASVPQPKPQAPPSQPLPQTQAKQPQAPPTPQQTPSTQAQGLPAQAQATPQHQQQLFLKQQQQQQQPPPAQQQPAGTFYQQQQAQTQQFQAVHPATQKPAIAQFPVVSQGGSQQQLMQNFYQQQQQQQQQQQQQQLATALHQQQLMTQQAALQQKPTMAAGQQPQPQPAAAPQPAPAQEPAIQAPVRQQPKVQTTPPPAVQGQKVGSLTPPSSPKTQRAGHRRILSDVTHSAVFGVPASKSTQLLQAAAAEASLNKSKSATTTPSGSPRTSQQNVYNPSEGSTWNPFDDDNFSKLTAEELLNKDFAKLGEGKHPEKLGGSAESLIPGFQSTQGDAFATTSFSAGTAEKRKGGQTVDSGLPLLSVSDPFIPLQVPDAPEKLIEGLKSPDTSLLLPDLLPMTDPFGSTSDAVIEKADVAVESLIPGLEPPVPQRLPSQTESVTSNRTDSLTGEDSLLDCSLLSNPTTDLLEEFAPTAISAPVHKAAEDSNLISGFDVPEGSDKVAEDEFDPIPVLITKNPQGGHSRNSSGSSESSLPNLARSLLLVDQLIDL
T2 sequence (P49336 whole entry): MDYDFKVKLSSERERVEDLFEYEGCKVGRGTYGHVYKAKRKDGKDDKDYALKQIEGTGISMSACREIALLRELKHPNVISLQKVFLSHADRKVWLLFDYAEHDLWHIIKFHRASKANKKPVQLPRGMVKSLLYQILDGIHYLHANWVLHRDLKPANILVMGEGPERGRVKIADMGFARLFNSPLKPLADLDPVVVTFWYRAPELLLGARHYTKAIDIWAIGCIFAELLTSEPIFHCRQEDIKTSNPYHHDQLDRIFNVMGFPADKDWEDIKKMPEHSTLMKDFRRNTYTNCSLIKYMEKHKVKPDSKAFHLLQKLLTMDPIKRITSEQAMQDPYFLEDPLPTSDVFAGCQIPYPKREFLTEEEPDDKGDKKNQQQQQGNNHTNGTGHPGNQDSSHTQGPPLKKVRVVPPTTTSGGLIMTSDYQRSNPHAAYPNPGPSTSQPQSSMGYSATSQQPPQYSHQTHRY
T2 sequence (P24863 whole entry partner): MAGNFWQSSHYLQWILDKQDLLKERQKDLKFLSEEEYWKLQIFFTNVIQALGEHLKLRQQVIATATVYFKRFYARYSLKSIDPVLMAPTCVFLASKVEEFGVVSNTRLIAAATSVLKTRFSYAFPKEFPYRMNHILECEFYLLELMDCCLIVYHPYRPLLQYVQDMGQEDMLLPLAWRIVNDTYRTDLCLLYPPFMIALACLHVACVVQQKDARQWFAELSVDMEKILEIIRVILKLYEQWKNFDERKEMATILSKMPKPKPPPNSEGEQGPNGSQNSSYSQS
T3 sequence (P49760 whole entry): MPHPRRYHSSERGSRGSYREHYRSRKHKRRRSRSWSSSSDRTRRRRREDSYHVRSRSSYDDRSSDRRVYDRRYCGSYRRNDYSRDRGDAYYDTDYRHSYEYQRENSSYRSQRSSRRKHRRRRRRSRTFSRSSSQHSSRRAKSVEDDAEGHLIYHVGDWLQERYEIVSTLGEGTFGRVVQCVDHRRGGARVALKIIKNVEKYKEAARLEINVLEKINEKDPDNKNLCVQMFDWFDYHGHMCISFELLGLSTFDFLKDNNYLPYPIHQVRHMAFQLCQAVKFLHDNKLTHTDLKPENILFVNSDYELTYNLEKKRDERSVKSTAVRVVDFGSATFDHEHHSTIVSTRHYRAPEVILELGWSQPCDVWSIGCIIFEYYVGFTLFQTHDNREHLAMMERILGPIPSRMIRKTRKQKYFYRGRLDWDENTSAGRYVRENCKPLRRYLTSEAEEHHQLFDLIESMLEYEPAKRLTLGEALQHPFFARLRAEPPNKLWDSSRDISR
T5 sequence (Q05655 whole entry): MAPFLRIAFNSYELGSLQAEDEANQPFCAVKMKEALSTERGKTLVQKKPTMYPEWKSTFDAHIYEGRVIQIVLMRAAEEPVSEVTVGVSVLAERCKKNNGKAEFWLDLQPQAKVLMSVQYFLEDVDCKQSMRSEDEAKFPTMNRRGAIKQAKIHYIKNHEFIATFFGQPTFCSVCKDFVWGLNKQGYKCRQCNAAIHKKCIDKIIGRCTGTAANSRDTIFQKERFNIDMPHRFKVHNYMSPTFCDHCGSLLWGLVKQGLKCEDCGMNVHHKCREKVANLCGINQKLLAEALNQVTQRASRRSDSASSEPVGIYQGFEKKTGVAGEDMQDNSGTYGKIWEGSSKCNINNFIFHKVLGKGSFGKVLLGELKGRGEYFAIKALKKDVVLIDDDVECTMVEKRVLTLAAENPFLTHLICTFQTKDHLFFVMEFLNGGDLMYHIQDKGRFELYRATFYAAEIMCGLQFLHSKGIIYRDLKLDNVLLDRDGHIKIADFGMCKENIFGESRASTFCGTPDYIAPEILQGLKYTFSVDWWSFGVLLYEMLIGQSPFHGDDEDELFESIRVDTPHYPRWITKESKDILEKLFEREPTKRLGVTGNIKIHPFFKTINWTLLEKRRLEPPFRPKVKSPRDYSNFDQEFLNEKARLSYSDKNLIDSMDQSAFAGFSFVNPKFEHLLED

Cc1[nH]nc2ccc(-c3cncc(OC[C@@H](N)Cc4ccccc4)c3)cc12 [A-674563]
inhibited: MIB-binding of AAK1 (AAK1) | MIB-binding of CDK8 (CDK8) | MIB-binding of CLK2 (CLK2) | MIB-binding of MAP3K12 (MAP3K12) | MIB-binding of PRCKD (PRCKD)
